Activity calls are given as the source filed them. The rule behind the calls is not given here.
Tested on: Ga16-expressing cells (no TAAR1), calcium fluorescence, counterscreen
Experiment: nonselective Ga16 agonists, potency, late-stage follow-up, counter-screen for TAAR1 agonist project, cell-based, fluorescence, dose response (AID 743232)

Row | Structure (SMILES) | EC50
1 | CC(=NCCc1ccccc1)C1CCOC1=O (stereo unspecified) | > 29.9 µM (inactive)
2 | NC(N)=NN=Cc1c(Cl)cccc1Cl | > 29.9 µM (inactive)
3 | CC(=C1C(=O)c2ccccc2C1=O)N1CCc2ccccc2C1 | > 29.9 µM (inactive)
4 | Nc1nc(Nc2ccccc2)nc2ccccc12 | > 29.9 µM (inactive)
5 | NC(N)=Nc1cc2ccccc2c2ccccc12 | > 29.9 µM (inactive)
6 | O=C(Nc1ccncc1)Nc1ccc(F)cc1 | > 29.9 µM (inactive)
7 | c1ccc2c(c1)CCN(c1nc3cc4c(cc3s1)OCO4)C2 | > 29.9 µM (inactive)
8 | OCCNc1nc(Nc2cccc(O)c2)nc2ccccc12 | > 29.9 µM (inactive)
9 | O=C(CCN1CCC(c2ccccc2)C1)c1cccs1 (stereo unspecified) | > 29.9 µM (inactive)
10 | c1ccc2c3c([nH]c2c1)CCNC3 | > 29.9 µM (inactive)
11 | c1ccc(CCn2nnnc2C(c2cccs2)N2CCN(Cc3ccc4c(c3)OCO4)CC2)cc1 (stereo unspecified) | > 29.9 µM (inactive)
12 | O=c1[nH]cc(NCCc2ccccc2)c(=O)[nH]1 | > 29.9 µM (inactive)
13 | CCOC(=O)C(NC(=O)CC)(N1CCc2ccccc2C1)C(F)(F)F (stereo unspecified) | > 29.9 µM (inactive)
14 | Cc1ccc(NC(=O)CCN2CCc3ccccc3C2)cc1 | > 29.9 µM (inactive)
15 | Cc1cc(C)n(C(CC(=O)N2CCc3ccccc3C2)C(=O)O)n1 (stereo unspecified) | > 29.9 µM (inactive)
16 | OCCNc1nc(Nc2ccc(O)cc2)nc2ccccc12 | > 29.9 µM (inactive)

Row | Structure (SMILES) | EC50
17 | O=C(Nc1cccc2ccccc12)N1CCc2ccccc2C1 | > 29.9 µM (inactive)
18 | Nc1nc(Nc2cccc(F)c2)nc2ccccc12 | > 29.9 µM (inactive)
19 | CCOC(=O)C(NC(C)=O)(N1CCc2ccccc2C1)C(F)(F)F (stereo unspecified) | > 29.9 µM (inactive)
20 | CC1(C)CCCN(C(=O)c2coc(=O)c(Br)c2)C1 | > 29.9 µM (inactive)
21 | O=C(CCCCl)N1CCc2[nH]c3ccccc3c2C1 | > 29.9 µM (inactive)
22 | COc1cc(C(=O)CCN2CCC(c3ccccc3)C2)cc(OC)c1OC (stereo unspecified) | > 29.9 µM (inactive)
23 | O=C(CCN1CCC(c2ccccc2)C1)c1ccc2c(c1)OCCO2 (stereo unspecified) | > 29.9 µM (inactive)
24 | NCc1c(O)ccc2ccccc12 | > 29.9 µM (inactive)
25 | O=C(Nc1ccccc1)Nc1ccncc1 | > 29.9 µM (inactive)
26 | c1ccc(CCN2CN(CCCN3CCOCC3)c3nc4ccccc4n3C2)cc1 | > 29.9 µM (inactive)
27 | O=C(Nc1cccnc1)Nc1cccc(F)c1 | > 29.9 µM (inactive)
28 | O=C(C(=O)N1CCc2ccccc2C1)c1cn(CC(=O)N2CCCCC2)c2ccccc12 | > 29.9 µM (inactive)
29 | Cc1cc(N(C)C)nc(Nc2ccccc2)n1 | > 29.9 µM (inactive)
30 | O=C(CCN1CCc2ccccc2CC1)c1ccc2c(c1)OCCO2 | > 29.9 µM (inactive)
31 | Cc1[nH]c2ccccc2c1CN1CCc2ccccc2C1 | > 29.9 µM (inactive)

— PubChem BioAssay AID743232 (The Scripps Research Institute Molecular Screening Center, 2013)
